Consider one compound from patent publication US20020164581A1 (priority 2001, published 2002).

The test system of one test is female and male bAECs. The test is classed as cell-based, bovine. Conditions: for mean DCFH fluorescence: separate set of donors, 45-minute paraquat exposure. How it is done: For flow cytometric analysis (after E2 treatment), female and male bAECs were trypsinized, rinsed, and resuspended in PBS containing 2% BSA at a density of 5×10^5 cells/ml. The cells were loaded with dichlorofluorescin diacetate (Molecular Probes, Eugene, Oreg.) (dissolved in DMSO) at 5 μg/ml for 15 minutes followed by paraquat insult (1 mM) at room temperature in the dark. At the designated times, aliquots were withdrawn, placed on ice, and the fluorescence of oxidized DCFH was analyzed by a FACSCalibur™ flow cytometer (Becton-Dickinson, San Jose, Calif.) equipped with an argon laser. A collection filter for the green emission of oxidized DCFH (530/30 nm) was used. Fluorescence signal was collected in log mode and analyzed using Cellquest™ software (Becton-Dickinson).
SOD can dismutate the superoxide radical to hydrogen peroxide, which is subsequently detoxified by CAT or GPX. […] This theory was tested by comparing the level of ROS in female and male bAECs during subsequent oxidant exposure. Following E2 treatment for 24 hours, cells were loaded with dichlorofluorescein diacetate, which penetrates their plasma membranes and is converted to 2′,7′-dichlorofluorescein (DCFH) by intracellular esterases. This nonfluorescent compound, once oxidized by ROS such as hydrogen peroxide, turns to a highly fluorescent derivative.

Test [1] relates to glutathione reductase (GR). Nature of the test: GR activity in cell lysate (NADPH oxidation). The test is classed as cell-based, bovine. How it is done: (§1) Cells pretreated with different concentrations of E2 for 24 hours were harvested in a solution containing 50 mM Tris-HCl (pH 7.4), 1 mM EDTA, 2 μg/ml pepstatin A, 10 μg/ml benzamidine, and 10 μg/ml trypsin inhibitor. The cells were then lysed on ice by sonication at a setting of 50 mW, with 3×15 set cycles using a Cole-Parmer Ultrasonic Homogenizer (Chicago, Ill.). Protein concentrations in the samples were determined by the Bradford method with bovine serum albumin as a standard (Bradford, Anal. Biochem. 72:248-254, 1976).
GR activity was determined by a modified method of Carlberg and Mannervik (Methods Enzymol. 11 3:484-490, 1985). One unit of GR activity is defined as the amount of protein that oxidizes 1 nmole of β-NADPH per minute. Briefly, 50 μl of 2 mM β-NADPH in 10 mM Tris buffer (pH 7.0) was added to a cuvette containing 50 μl of 20 mM glutathione (oxidized ofrm, GSSG) in phosphate buffer (0.1 M NaH2PO4, 0.1 M Na2HPO4, 0.1 mM EDTA, pH 7.0) and 800 μl of phosphate buffer. Following the addition of cell homogenate (about 100 μg protein/100 μl) the final mixture was measured at 340 nm for 3 minutes. The molar extinction coefficient of 6.22 mM/cm was used to determine the activity of […].

A further test relates to cardiomyocytes. Conditions: cited from earlier work.
In test [2] the test system is superoxide dismutase (SOD). Nature of the test: SOD activity in cell lysate (epinephrine auto-oxidation). The test is classed as cell-based, bovine. How it is done:
as §1
SOD activity was determined by a method based on the ability of SOD to suppress epinephrine auto-oxidation (Misra and Fridovich, J.Biol. Chem. 247:3170-3175, 1972). One unit of SOD activity is defined as the amount of protein that inhibits the oxidation of epinephrine by 50%. Briefly, 100 μl of 10×-diluted cell homogenate (about 10 μg protein) was added to 900 μl of carbonate buffer (0.1 M NaHCO3, 0.1 M Na2CO3, 0.1 mM EDTA, pH 10.2) containing 0.7 mM of epinephrine. The absorbency of the mixture was measured for 4 minutes at 480 nm using a Hitachi U-2000 spectrophotometer (Hitachi, San Jose, Calif.).

The next test has as its system catalase (CAT). The test is described as follows: CAT activity in cell lysate (H2O2 degradation). The test is classed as cell-based, bovine. The method, then:
as §1
CAT activity was determined by the method of Aebi (Methods Enzymol. 105:121,-126, 1984). One unit of CAT activity is defined as the amount of protein that degrades 1 μmole of H2O2 per minute. Initially, 10 μl of absolute ethanol was mixed with 100 μl of cell homogenates and pre-incubated at 4° C. for 30 minutes. Following the addition of 10 μl Triton X-100 (reduced form), a 100 μl aliquot (about 100 μg of protein) of the resultant mixture was next added to 500 μl of hydrogen peroxide (66 mM) and 400 μl of phosphate buffer (0.1 M NaH2PO4, 0.1 M Na2HPO4, 0.1 mM EDTA, pH 7.0). The absorbency of the mixture was monitored for one minute at 240 nm spectrophotometrically. The molar extinction coefficient of 43.6 M/cm was used to determine the catalase activity.

In test [3] the test system is glutathione peroxidase (GPX). The test is described as follows: GPX activity in cell lysate (NADPH oxidation). The test is classed as cell-based, bovine. The method, then: as §1
GPX activity was determined by a modified method of Flohe and Gunzler (Methods Enzymol. 105:114-121, 1984). One unit of GPX activity is defined as the amount of protein that oxidizes 1 nmole of β-NADPH per minute. In this assay, 100 μl of cell homogenate (about 100 μg protein) was added to 800 μl of phosphate buffer (0.1 M NaH2PO4, 0.1 M Na2HPO4, 0.1 mM EDTA, pH 7.0) containing 12.5 mM glutathione (reduced form, GSH), 0.2 mM β-nicotinamide adenine dinucleotide phosphate (reduced form, β-NADPH), and 0.34 U glutathione reductase. This mixture was pre-incubated at 37 C for 10 minutes and then 100 μl of 12 mM t-butyl hydroperoxide was added. The absorbency of the mixture was determined at 340 nm for 3 minutes. The molar extinction coefficient of 6.22 mM/cm was used to determine the activity of GPX.

The mark [4] stands for this setting: 1 nM E2 pretreatment (Example 8).
The mark [5] stands for this setting: female bAECs, 24 h 1 nM E2 (Example 12).

Several values for one entry are separate records, joined by “and”; a condition that tells them apart may be missing. Identical values can stand only once. Like-named read-outs stand apart in the source and are kept apart here.

Take `C[C@]12CC[C@@H]3c4ccc(O)cc4CC[C@H]3[C@@H]1CC[C@@H]2O` [E2, 17β-estradiol]: in the test with female and male bAECs, the “mean fluorescence intensity of oxidized DCFH” value is 795 and 1323. Also, in the test with female and male bAECs (E2-pretreated cells, before paraquat), the “basal level of DCFH oxidation, female vs male” value is reported as “similar”. Moreover, the “mean DCFH fluorescence” value in the test on female and male bAECs (female bAECs) is 1002; in the test with female and male bAECs (male bAECs) it was 1581. For the same compound, the “GR activity elevation relative to untreated cells” value in test [1] (setting [4]) is recorded as about 3 fold. The GR activity increase in test [1] (setting [5]) is recorded as about 2 fold. In the test with cardiomyocytes, the “effect on high K+-induced Ca++ loading or hypercontracture” value was “prevent high K+-induced intracellular Ca++ loading or hypercontracture”. In test [2] (setting [4]), the “SOD activity elevation relative to untreated cells” value is on record as “approximately 4 fold”. Also, the SOD activity increase entry in test [2] (setting [5]) was “about 4 fold”. Further, the “CAT activity elevation relative to untreated cells” value in the test on catalase (CAT) (setting [4]) was about 2 fold. Moreover, in the test with catalase (CAT) (setting [5]), the CAT activity increase was about 2 fold. Further, in test [3] (setting [4]), the “GPX activity elevation relative to untreated cells” value was about 2 fold. This compound also had a GPX activity increase in test [3] (setting [5]) of about 3 fold.
